Results: US20080261994A1, “CYCLOPROPANE COMPOUNDS AND PHARMACEUTICAL USE THEREOF” (Japan Tobacco Inc., priority 2003, published 2008)
Read-outs that look alike come from different tables or passages of the source.

Columns and labels:
Format in all cases: biochemical
aggrecanase-1 = target: T1, aggrecanase-1 (Homo sapiens, UniProt O75173); test: Aggrecanase-1 inhibitory action (Particle Assay, GAG release from aggrecan-containing polyacrylamide particles)
T1 sequence (O75173 213-837): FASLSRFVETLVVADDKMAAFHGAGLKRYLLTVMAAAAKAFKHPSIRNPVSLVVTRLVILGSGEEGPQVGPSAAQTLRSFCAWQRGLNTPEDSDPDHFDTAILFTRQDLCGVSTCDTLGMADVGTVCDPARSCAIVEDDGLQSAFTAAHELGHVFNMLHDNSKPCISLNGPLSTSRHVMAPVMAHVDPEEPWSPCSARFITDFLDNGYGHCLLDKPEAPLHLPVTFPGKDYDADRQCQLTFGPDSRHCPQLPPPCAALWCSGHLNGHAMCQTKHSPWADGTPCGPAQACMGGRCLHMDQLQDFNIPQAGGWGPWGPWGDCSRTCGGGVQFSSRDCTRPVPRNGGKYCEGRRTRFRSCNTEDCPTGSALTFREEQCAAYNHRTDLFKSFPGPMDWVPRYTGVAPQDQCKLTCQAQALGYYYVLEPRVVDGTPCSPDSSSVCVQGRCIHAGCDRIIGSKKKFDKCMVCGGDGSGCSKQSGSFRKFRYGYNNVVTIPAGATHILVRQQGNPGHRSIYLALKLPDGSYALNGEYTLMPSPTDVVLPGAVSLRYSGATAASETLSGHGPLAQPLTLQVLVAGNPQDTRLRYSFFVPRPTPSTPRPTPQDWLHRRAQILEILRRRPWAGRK
Method: Particle Assay was used for determination of aggrecanase activity.
(§1) The enzyme and substrate were diluted with Tris-HCl buffer, and test compounds were diluted with dimethyl sulfoxide (DMSO).
Test compounds and the enzyme were added into 96-well plate, and polyacrylamide particles containing aggrecan were added as a substrate and the mixture was incubated at 37° C. for 15 hr.
After incubation, the supernatant was transferred to another plate, and mixed with 1,9-dimethylmethylene blue. The absorbence at 595 nm was measured to quantify the amount of glycosaminoglycan (GAG) released in the reaction supernatant. Whale chondroitin sulfate was used as the standard of GAG. The inhibitory activity of the compound in each well (%) was calculated based on the values of enzyme-free well and inhibitor-free well. The inhibitory activity of the compound was represented as […] (μM).

MMP-1 = target: T2, MMP-1 (Homo sapiens, UniProt P03956); test: MMP-1 inhibitory action (Type I collagen Activity Measurement kit, FITC-labeled collagen type I)
T2 sequence (P03956 100-469): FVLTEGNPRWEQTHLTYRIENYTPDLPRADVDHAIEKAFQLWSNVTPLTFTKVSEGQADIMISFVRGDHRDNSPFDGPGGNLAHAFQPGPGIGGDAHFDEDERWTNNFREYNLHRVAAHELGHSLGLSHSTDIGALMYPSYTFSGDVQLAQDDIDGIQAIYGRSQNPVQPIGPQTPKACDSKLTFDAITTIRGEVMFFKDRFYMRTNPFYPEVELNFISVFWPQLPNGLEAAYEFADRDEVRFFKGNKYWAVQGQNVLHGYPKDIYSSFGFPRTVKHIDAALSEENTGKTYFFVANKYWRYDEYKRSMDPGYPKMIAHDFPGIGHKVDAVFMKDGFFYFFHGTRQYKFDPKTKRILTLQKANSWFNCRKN
Method: For MMP-1 Assay, Type I collagen Activity Measurement kit (YAGAI YU-72013) modified to a 96-well plate format was used.
The principle of the kit is based on the property of collagen that becomes soluble in ethanol after being cleaved by MMP-1.
as §1
The enzyme and test compounds were added into 96-well plate, and fluorescein isothiocianate (FITC)-labeled collagen type I was added as a substrate and the mixture was incubated at 37° C. for 3 hr.
The reaction was terminated by addition of Tris-HCl buffer containing ethanol. After centrifugation, the supernatant containing denatured substrate was transferred to another 96-well plate. The collagenase activity of MMP-1 was determined by measuring FITC fluorescence intensity (excitation wavelength 485 nm, emission wavelength 530 nm) of each well. The inhibitory activity of the compound in each well (%) was calculated based on the values of enzyme-free well and inhibitor-free well. The inhibitory activity of the compound was represented as IC50 (μM).

Recombinant Human MMP-13 = target: T3, Recombinant Human MMP-13 (Homo sapiens, UniProt P45452); test: MMP-13 inhibitory activity (MMP-13 specific fluorescent substrate with quencher)
T3 construct: purchased R&D systems 511-MM
Method: Inhibitory activity of tested compounds on MMP-13 was measured using MMP-13 specific fluorescent substrate with quencher.
as §1
Test compounds and the enzyme (Recombinant Human MMP-13: R&D systems, 511-MM) were added into 96-well plate. The reaction was initiated by adding synthetic substrate (7-MCA-Pro-CHA-Gly-NVal-His-Ala-DPA: enzyme systems products, Met-06) into the plate. After incubation at 25° C. for 1 h, the reaction was terminated by addition of reaction terminating solution containing acetic acid. Fluorescence intensity of each well was measured (Ex: 325 nm, […] 405 nm) and the MMP-13 inhibitory activity of the compound in each well (%) was calculated based on the values of enzyme-free well and inhibitor-free well. The inhibitory activity of the compound was represented as IC50 (μM).

[1] = aggrecanase-1 inhibitory action, read-out: IC50 AG1 (Experimental Example 1)
[2] = MMP-1 inhibitory action, FITC-labeled collagen type I, 37° C. for 3 hr, read-out: IC50 MMP1 (Experimental Example 2)
[3] = Recombinant Human MMP-13, fluorescent substrate, 25° C. for 1 h, read-out: IC50 MMP13 (Experimental Example 3)
[4] = Experimental Example 1, read-out: IC50 AG1
[5] = Experimental Example 2, read-out: IC50 MMP1
[6] = Experimental Example 3, read-out: IC50 MMP13

| SMILES | IC50 (aggrecanase-1; [1]) [nM] | IC50 (MMP-1; [2]) [nM] | IC50 (Recombinant Human MMP-13; [3]) [nM] | IC50 (aggrecanase-1; [4]) [nM] | IC50 (MMP-1; [5]) [nM] | IC50 (Recombinant Human MMP-13; [6]) [nM] |
| --- | --- | --- | --- | --- | --- | --- |
| O=C(c1cccc(C2CC2(NS(=O)(=O)c2ccc(-c3ccc(Cl)cc3)s2)C(=O)O)c1)N1CCOCC1 (stereo not shown) [Example 2-73] | < 100 | ≥ 10000 | < 1000 |  |  |  |
| O=C(O)C1(NS(=O)(=O)c2ccc(-c3ccc(Cl)cc3)s2)CC1c1cccc(CNc2cccnc2)c1 (stereo not shown) [Example 2-32] | < 100 | ≥ 10000 | < 100 |  |  |  |
| CCC1[C@H](c2ccccc2)[C@]1(NS(=O)(=O)c1ccc(-c2cc(C(F)(F)F)on2)s1)C(=O)O (stereo partly shown) [Example 2-328] |  |  |  | < 100 | < 100 | < 100 |
| O=C(O)[C@]1(NS(=O)(=O)c2ccc(-c3cc(C(F)(F)F)no3)s2)C[C@@H]1c1ccccc1 [Example 2-171] | < 1000 | ≥ 10000 | < 1000 |  |  |  |
| C[C@]1(c2ccccc2)C[C@@]1(NS(=O)(=O)c1ccc(N2CCC(F)(F)CC2)s1)C(=O)O [Example 2-455] |  |  |  | ≥ 1000 |  | ≥ 1000 |
| CN(C)c1cccc(C2CC2(NS(=O)(=O)c2ccc(-c3ccc(Cl)cc3)s2)C(=O)O)c1 (stereo not shown) [Example 1-133] | < 100 | ≥ 1000 | < 100 |  |  |  |
| CC(=O)Nc1cccc(C2CC2(NS(=O)(=O)c2ccc(-c3ccc(Cl)cc3)cc2)C(=O)O)c1 (stereo not shown) [Example 1-40] | < 1000 | ≥ 1000 | < 100 |  |  |  |
| O=C(O)C1(NS(=O)(=O)N2CCN(c3cccc(Cl)c3)CC2)CC1c1ccccc1 (stereo not shown) [Example 2-31] | ≥ 1000 |  | ≥ 1000 |  |  |  |
| COc1ccc(-c2ccc(S(=O)(=O)N[C@@]3(C(=O)O)C[C@@H]3c3ccccc3)s2)nn1 [Example 2-33] | ≥ 1000 |  | < 1000 |  |  |  |
| O=C(O)[C@]1(NS(=O)(=O)c2ccc(-c3cc4ccccn4c3)s2)C[C@@H]1c1ccccc1 [Example 2-135] | ≥ 1000 |  | < 100 |  |  |  |
| Cn1nncc1-c1ccc(S(=O)(=O)N[C@@]2(C(=O)O)C[C@]2(C)c2ccccc2)s1 [Example 2-586] |  |  |  | ≥ 1000 |  | ≥ 10000 |
| CC1[C@H](c2ccccc2)[C@]1(NS(=O)(=O)c1ccc(-c2cnc3ccccc3n2)s1)C(=O)O (stereo partly shown) [Example 2-456] |  |  |  | ≥ 1000 |  | ≥ 1000 |
| O=C(O)C1(NS(=O)(=O)N2CCN(c3ccc(C(F)(F)F)cc3)CC2)CC1c1ccccc1 (stereo not shown) [Example 2-29] | ≥ 1000 |  | < 100 |  |  |  |
| O=C(O)C1(NS(=O)(=O)N2CCN(c3cccc(C(F)(F)F)c3)CC2)CC1c1ccccc1 (stereo not shown) [Example 2-28] | ≥ 1000 |  | ≥ 10000 |  |  |  |
| Cc1cnc(-c2ccc(S(=O)(=O)N[C@@]3(C(=O)O)C(C)[C@@H]3c3ccccc3)s2)o1 (stereo partly shown) [Example 2-417] |  |  |  | < 1000 | ≥ 1000 |  |
| O=C(COc1ccccc1C1CC1(NS(=O)(=O)c1ccc(-c2ccc(Cl)cc2)s1)C(=O)O)N1CCOCC1 (stereo not shown) [Example 1-146] | < 100 | ≥ 10000 |  |  |  |  |

| SMILES | IC50 (aggrecanase-1; [1]) [nM] | IC50 (MMP-1; [2]) [nM] | IC50 (Recombinant Human MMP-13; [3]) [nM] | IC50 (aggrecanase-1; [4]) [nM] | IC50 (MMP-1; [5]) [nM] | IC50 (Recombinant Human MMP-13; [6]) [nM] |
| --- | --- | --- | --- | --- | --- | --- |
| O=C(O)C1(NS(=O)(=O)N2CCN(c3ccc(Cl)c(C(F)(F)F)c3)CC2)CC1c1ccccc1 (stereo not shown) [Example 2-30] | ≥ 1000 |  | ≥ 1000 |  |  |  |
| COc1ccccc1C1CC1(NS(=O)(=O)c1ccc(-c2ccc(Cl)cc2)cc1)C(=O)O (stereo not shown) [Example 1-13] | < 1000 | ≥ 1000 |  |  |  |  |
| C[C@]1(c2ccccc2)C[C@@]1(NS(=O)(=O)c1ccc(-c2ccc(N)cc2)s1)C(=O)O [Example 2-583] |  |  |  | ≥ 1000 |  | ≥ 1000 |
| O=C(O)C1(NS(=O)(=O)c2ccc(-c3ccc(Cl)cc3)cc2)CC1c1ccccc1Oc1ccccc1 (stereo not shown) [Example 1-14] | < 1000 | ≥ 10000 |  |  |  |  |
| CC(C)(C)OC(=O)N1CCC(Nc2cccc(C3CC3(NS(=O)(=O)c3ccc(-c4ccc(Cl)cc4)cc3)C(=O)O)c2)CC1 (stereo not shown) [Example 1-42] | < 1000 | ≥ 1000 |  |  |  |  |
| CC1[C@H](c2ccccc2)[C@]1(NS(=O)(=O)c1ccc(-c2nc3cc(Cl)ccc3[nH]2)s1)C(=O)O (stereo partly shown) [Example 2-604] |  |  |  | < 1000 | ≥ 1000 |  |
| COc1cccc(C2CC2(NS(=O)(=O)c2ccc(-c3ccc(Cl)cc3)s2)C(=O)O)c1 (stereo not shown) [Example 1-115] | < 1000 | ≥ 1000 |  |  |  |  |
| C[C@]1(c2ccccc2)C[C@@]1(NS(=O)(=O)c1csc2ccc(-c3ccccc3)cc12)C(=O)O [Example 2-585] |  |  |  | ≥ 1000 |  | ≥ 1000 |
| O=C(O)[C@]1(NS(=O)(=O)c2ccc(-c3ccc(C(F)F)s3)s2)C[C@@H]1c1ccccc1 [Example 2-102] | < 1000 | < 1000 |  |  |  |  |
| O=C(O)[C@]1(NS(=O)(=O)c2ccc(-c3nsc(CF)n3)s2)C[C@@H]1c1ccccc1 [Example 2-115] | ≥ 1000 |  | < 1000 |  |  |  |
| CC1[C@H](c2ccccc2)[C@]1(NS(=O)(=O)c1ccc(-c2ccc3[nH]c(=O)sc3c2)s1)C(=O)O (stereo partly shown) [Example 2-468] |  |  |  | < 1000 | ≥ 1000 |  |
| Cc1cnc(-c2ccc(S(=O)(=O)N[C@@]3(C(=O)O)C[C@]3(C)c3ccccc3)s2)o1 [Example 2-418] |  |  |  | ≥ 1000 | ≥ 1000 |  |
| N#Cc1ccc(-c2ccc(S(=O)(=O)N[C@@]3(C(=O)O)C[C@@H]3c3ccccc3)s2)s1 [Example 2-34] | ≥ 1000 |  | < 1000 |  |  |  |
| CNC(=O)COc1cccc(C2CC2(NS(=O)(=O)c2ccc(-c3ccc(Cl)cc3)cc2)C(=O)O)c1 (stereo not shown) [Example 1-118] | < 100 | ≥ 1000 |  |  |  |  |
| O=C(O)C1(NS(=O)(=O)c2ccc(-c3ccc(Cl)cc3)cc2)CC1c1cccc(O)c1 (stereo not shown) [Example 1-44] | < 1000 | ≥ 1000 |  |  |  |  |
| O=C(O)C1(NS(=O)(=O)c2ccc(-c3ccc(Cl)cc3)s2)CC1Cc1ccccc1 (stereo not shown) [Example 2-38] | ≥ 1000 |  | < 1000 |  |  |  |
